Assay results from patent US20220105109A1, “METHODS OF TREATING COVID-19 AND COMPOSITIONS THEREFOR” (priority 2020, published 2022).
Read-outs that look alike come from different tables or passages of the source.

Tests used:
[1] = cited from earlier work; for suppressing ACE-inhibitor induced cough: patients
[2] = system: COVID-19; experiment: Anecdotal case of a subject with COVID-19 taking ASA; assay type: in vivo; conditions: one person; at least 0.4 g ASA orally on at least a few days of the approximately 14-day illness; also 80 mg famotidine daily
[3] = system: COVID-19; conditions: COVID-19 patients who had been taking famotidine; cited from earlier work

| Compound | cough severity and cough frequency ([1]; 500 mg ASA daily) | patients with cough completely abolished ([1]; 500 mg ASA daily) | patients with cough significantly reduced ([1]; 500 mg ASA daily) | suppressing ACE-inhibitor induced cough ([1]; intermediate dose, 500 mg ASA daily) | suppressing ACE-inhibitor induced cough ([1]; low dose, 100 mg ASA daily) | common respiratory symptoms and effects of COVID-19 (shortness of breath, cough) [2] | clinical outcomes (intubations, deaths, symptoms) vs patients not taking famotidine [3] |
| --- | --- | --- | --- | --- | --- | --- | --- |
| CC(=O)Oc1ccccc1C(=O)O [ASA, acetylsalicylic acid] | Significant reductions | five of 14 | 13 of 14 | extremely effective | ineffective | none of the common respiratory symptoms and effects of COVID-19 | – |
| NC(N)=Nc1nc(CSCCC(N)=NS(N)(=O)=O)cs1 [famotidine] | – | – | – | – | – | – | better outcomes |
